This is an account of results in patent publication US12600710B2, “Beta-catenin and b-cell lymphoma 9 (BCL9) inhibitors” (H. LEE MOFFITT CANCER CENTER AND RESEARCH INSTITUTE, INC., priority 2018, dated 2026).

The target of the experiment is T1, β-catenin/BCL9 PPI (Homo sapiens, UniProt P35222).
T1 construct: Wild-type full-length β-catenin were cloned into a pET-28b vector carrying a C-terminal 6×histidine; made in house; host or cells: Escherichia coli BL21 DE3 (β-catenin); BCL9 peptide chemically synthesized
T1 sequence (P35222 1-781): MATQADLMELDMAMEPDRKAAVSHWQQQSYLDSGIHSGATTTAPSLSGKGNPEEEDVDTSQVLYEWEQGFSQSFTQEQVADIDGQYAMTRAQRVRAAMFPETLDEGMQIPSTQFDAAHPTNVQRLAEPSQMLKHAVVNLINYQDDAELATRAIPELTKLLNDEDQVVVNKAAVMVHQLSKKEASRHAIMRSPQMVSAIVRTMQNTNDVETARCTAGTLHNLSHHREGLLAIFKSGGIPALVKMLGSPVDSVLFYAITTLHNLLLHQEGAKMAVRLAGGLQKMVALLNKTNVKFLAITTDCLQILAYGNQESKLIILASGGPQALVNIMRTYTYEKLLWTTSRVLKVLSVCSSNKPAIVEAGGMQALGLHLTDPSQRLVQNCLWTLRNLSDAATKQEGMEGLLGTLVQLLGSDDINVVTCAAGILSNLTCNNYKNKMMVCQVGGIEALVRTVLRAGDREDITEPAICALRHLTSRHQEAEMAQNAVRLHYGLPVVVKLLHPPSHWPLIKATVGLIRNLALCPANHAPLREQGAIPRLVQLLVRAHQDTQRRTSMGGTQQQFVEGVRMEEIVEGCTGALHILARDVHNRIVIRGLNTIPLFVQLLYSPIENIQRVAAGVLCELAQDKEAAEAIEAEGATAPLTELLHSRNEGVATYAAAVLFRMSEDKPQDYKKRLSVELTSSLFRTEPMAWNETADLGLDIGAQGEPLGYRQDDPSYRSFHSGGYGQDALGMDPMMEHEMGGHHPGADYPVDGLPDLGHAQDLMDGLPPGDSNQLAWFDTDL
Briefly: AlphaScreen competitive inhibition assay of the β-catenin/BCL9 PPI. The settings on record: mean ± SD, triplicate, Ki derived from IC50 (Nikolovska-Coleska method). The experiment is classed as binding. How it is done: AlphaScreen competitive inhibition assays. For the competitive inhibition assays of the β-catenin/BCL9 PPI, the negative control (equivalent to 0% inhibition) refers to 5.0 nM of biotinylated BCL9, 40 nM of His6-tagged β-catenin, and 10 μg/mL of donor and acceptor beads in a final volume of 25 μL assay buffer, but no tested inhibitor present. The positive control (equivalent to 100% inhibition) refers to 5.0 nM of biotinylated BCL9 and 10 μg/mL of donor and acceptor beads in a final volume of 25 μL assay buffer.
For the β-catenin/BCL9 assay, 5 nM of biotinylated BCL9 and 40 nM of His6-tagged β-catenin were incubated in assay buffer at 4° C. for 30 min. Different concentrations of the tested inhibitor were added and incubated in 20 μL assay buffer at 4° C. for another 1 h. All of the above assay plates were covered and gently mixed on an orbital shaker. The donor and acceptor beads were then added to the plates to a final concentration of 10 μg/mL in 25 μL assay buffer. The mixture was incubated for 1 h at 4° C. before detection. The IC50 value was determined by nonlinear least-square analysis of GraphPad Prism 5.0. The Ki values were derived from the IC50 values using a method reported by Nikolovska-Coleska et al (Nikolovska-Coleska, Z.; Wang, R.; Fang, X.; Pan, H.; Tomita, Y.; Li, P.; Roller, P. P.; Krajewski, K.; Saito, N. G.; Stuckey, J. A.; Wang, S. Development and optimization of a binding assay for the XIAP BIR3 domain using fluorescence polarization. Anal. Biochem. 2004, 332, 261-273). The assays were conducted under the conditions required by Nikolovska-Coleska et al.'s equation for determining the Ki values. All of the experiments were performed in triplicate. The results were expressed as mean±standard deviation.

Setting [1] is: Example 1 compounds, experiment 3, read-out: Ki (μM ± SD) experiment 3.
[2] abbreviates: Example 1 compounds, experiment 4, read-out: Ki (μM ± SD) experiment 4.
The mark [3] stands for this setting: Example 2 compounds, experiment 1, read-out: Ki (μM ± SD) experiment 1.
Setting [4] is: Example 2 compounds, experiment 2, read-out: Ki (μM ± SD) experiment 2.

Counter-ions that a name gives are not always drawn. Like-named read-outs stand apart in the source and are kept apart here.

For the compound `CC(=O)Nc1cc(F)cc(C(=O)N2CCN(C(=O)c3ccc(O[C@H]4CCNC4)c(C4CCCCC4)c3)C(C(=O)NCC3CCCCC3)C2)c1` (stereo partly drawn) [Compound 26, 4-(3-Acetamido-5-fluorobenzoyl)-1-(3-cyclohexyl-4-(((S)-pyrrolidin-3-yl)oxy)benzoyl)-N-(cyclohexylmethyl) piperazine-2-carboxamide trifluoroacetate], the Ki runs as follows: under setting [1], 410 ± 56 µM; under setting [2], 770 ± 140 µM.
Turning to `O=C(c1ccc(O[C@H]2CCNC2)c(C2CCCCC2)c1)N1CCC(Oc2cc(F)cc(N3CCNCC3)c2)CC1` [Compound 1, (S)-(3-cyclohexyl-4-(pyrrolidin-3-yloxy)phenyl) (4-(3-fluoro-5-(piperazin-1-yl)phenoxy)piperidin-1-yl) methanone dihydrochloride], the Ki under setting [3] came out at 12.3 ± 1.74 µM and the Ki under setting [4] was 25.4 ± 2.43 µM.
Regarding `CNCc1cn(-c2cc(F)cc(C(=O)N3CCN(C(=O)c4ccc(O[C@H]5CCNC5)c(C5CCCCC5)c4)CC3)c2)nn1` [Compound 32, (S)-(4-(3-Cyclohexyl-4-(pyrrolidin-3-yloxy)benzoyl)piperazin-1-yl) (3-fluoro-5-(4-((methylamino)methyl)-1H-1,2,3-triazol-1-yl)phenyl) methanone dihydrochloride], the Ki under setting [1] is above 1000 µM.
For `CC(=O)Nc1cc(F)cc(C(=O)N2CCN(C(=O)c3ccc(O[C@H]4CCNC4)c(C4CCCCC4)c3)C(C(=O)N(C)C)C2)c1` (stereo partly drawn) [Compound 18, 4-(3-Acetamido-5-fluorobenzoyl)-1-(3-cyclohexyl-4-(((S)-pyrrolidin-3-yl)oxy)benzoyl)-N,N-dimethylpiperazine-2-carboxamide trifluoroacetate], the Ki was 73 µM under setting [1] and 150 ± 17 µM under setting [2].
For `CC(=O)Nc1cc(F)cc(C(=O)N2CCN(C(=O)c3ccc(O[C@H]4CCNC4)c(C4CCCCC4)c3)C(C(=O)NCCC(C)C)C2)c1` (stereo partly drawn) [Compound 24, 4-(3-Acetamido-5-fluorobenzoyl)-1-(3-cyclohexyl-4-(((S)-pyrrolidin-3-yl)oxy)benzoyl)-N-isopentylpiperazine-2-carboxamide trifluoroacetate] the same measures were 700 ± 130 µM and 540 ± 71 µM.
In the case of `NCc1cn(Cc2cc(F)cc(OC3CCN(C(=O)c4ccc(O[C@H]5CCNC5)c(C5CCCCC5)c4)CC3)c2)nn1` [Compound 3, (S)-(4-(3-((4-(aminomethyl)-1H-1,2,3-triazol-1-yl)methyl)-5-fluorophenoxy)piperidin-1-yl) (3-cyclohexyl-4-(pyrrolidin-3-yloxy)phenyl) methanone dihydrochloride], the Ki came out at 132 ± 9.82 µM under setting [3] and 124 ± 13.4 µM under setting [4].
In the case of `NCc1cn(-c2cc(F)cc(C(=O)N3CCN(C(=O)c4ccc(O[C@H]5CCNC5)c(C5CCC(C(F)(F)F)CC5)c4)CC3)c2)nn1` (stereo partly drawn) [Compound 31, (S)-(4-(3-(4-(aminomethyl)-1H-1,2,3-triazol-1-yl)-5-fluorobenzoyl)piperazin-1-yl) (4-(pyrrolidin-3-yloxy)-3-(4-(trifluoromethyl)cyclohexyl)phenyl) methanone ditrifluoroacetate], the Ki was above 350 µM (Example 1 compounds, experiment 1, read-out: Ki (μM ± SD) experiment 1) and 610 ± 91 µM (Example 1 compounds, experiment 2, read-out: Ki (μM ± SD) experiment 2).
With `NCCCC(=O)Nc1cc(F)cc(OC2CCN(C(=O)c3ccc(OC4CCNC4)c(C4CCCCC4)c3)CC2)c1` (stereo not drawn) [Compound 6, 4-amino-N-(3-((1-(3-cyclohexyl-4-(pyrrolidin-3-yloxy)benzoyl)piperidin-4-yl)oxy)-5-fluorophenyl)butanamide dihydrochloride], the Ki by setting is: under setting [3], 56.9 ± 8.34 µM; under setting [4], 24.2 ± 2.7 µM.
